Test results from patent publication US20260034135A1, “USE OF N6-BENZYLAMINOPURINE AS AN APPETITE SUPPRESSANT” (THE GOVERNING COUNCIL OF THE UNIVERSITY OF TORONTO, priority 2022, published 2026).

What was measured:
[1] = test system: mHypoA-POMC/GFP-2 cell line; assay: Gene expression by qRT-PCR in mHypoA-POMC/GFP-2 hypothalamic cell line; type: cell-based, mouse; conditions: 100 μM BAP, 16 hr
Procedure: Hypothalamic neurons from embryonic and adult mice were previously immortalized to generate the clonal cell lines mHypoE-46, mHypoE-44, mHypoE-41, mHypoE-38, mHypoA-59, a FAC-sorted POMC/GFP mouse-derived cell line, mHypoA-POMC/GFP-2, and a mixed culture mHypoA-Bmal1-WT/F cell line (6, 13, 14). The mHypoE-46, mHypoE-44, and mHypoA-Bmal1-WT/F lines were cultured in DMEM containing 1000 mg/L glucose supplemented with 5% FBS and 1% pen/strep. The mHypoE-41, mHypoE-38, and mHypoA-59 cell lines were cultured in DMEM containing 4500 mg/L glucose supplemented with 2% FBS and 1% pen/strep. The mHypoA-POMC/GFP-2 line was cultured in DMEM containing 1000 mg/L glucose supplemented with 2% FBS and 1% pen/strep. […] Neuropeptide gene expression levels were determined by qRT-PCR.
For cell culture experiments, total RNA was isolated using PureLink RNA isolation kit (Thermofisher Scientific, Burlington, ON, Canada) according to the manufacturer's instruction with on column DNase step (PureLink DNAse kit) or DNase I treatment to remove genomic DNA. […] RNA quality and quantity were measured using Nanodrop 2000 and 500-1000 ng of complimentary DNA (cDNA) was synthesized with High Capacity cDNA Reverse Transcription kit (Applied biosystems, Thermofisher Scientific). […] Data was analyzed using […] and normalized to reference gene, either 60S ribosomal protein L7 (Rpl7) or Histone 3a (His).

AMPK = AMPK phosphorylation by Western blot in mHypoE-46; type: cell-based, mouse; conditions: 100 μM BAP, 15 min, mHypoE-46
Procedure: mHypoE-46 cells were serum starved in 5.5 mM glucose (LG) DMEM for 1 hour prior to treatment with vehicle (0.1% DMSO), 100 µM BAP or H20, […] 5-Aminoimidazole-4-carboxamide ribonucleotide (AICAR) or 0 mM glucose DMEM. Protein was harvested using 1× cell lysis buffer (Cell Signaling Technologies, Inc, CST) containing protease and phosphatase inhibitors. A total of 30 μg protein was separated on a 12% SDS-polyacrylamide gels and transferred onto PVDF membranes. Membranes were blocked in 5% milk dissolved in Tris-buffered saline with Tween 20 (TBS-T) for 1 h and incubated with primary antibody overnight at 4° C. phospho-AMPKα (Thr172; cat. 2532S, CST), and total AMPKα (cat. 2535S, CST); phospho-p70-S6K (Thr389; cat. 9205S, CST) and total p70-S6K (cat. 9202S, CST); insulin receptor ß (cat. 3025S, CST); phospho-AKT (Ser473; cat. 9271S, CST) and total AKT (cat. 9272S, CST); phospho-ERK1/2 (Thr202/Tyr204; cat. 9101, CST) and total ERK (cat. 4695, CST) were diluted 1:1000 in 5% milk in TBS-T. Membranes were washed and incubated with secondary HRP-linked antirabbit antibody (1:7500 in 5% milk in TBS-T, CST) for 1 h, washed, and imaged using the Signal Fire ECL Reagent (CST) on the iBright 1500 Imaging System (Thermofisher). Protein density was quantified using ImageJ or the iBright Imaging System.

[2] = BAP in the drinking water in CD-1 mice: body weight and water intake; type: in vivo
Procedure: All protocols using mice were approved by the University Animal Care Committee of the University of Toronto and were performed in accordance with the Canadian Council on Animal Care. Animal experiments were performed in three separate animal facilities: Medical Sciences Building (MSB), Centre for Cellular and Biomolecular Research (CCBR) and the Biological Sciences Facility (BSF) due to ongoing construction and housing changes. Facilities and dates are indicated in each experimental cohort. N6-benzylaminopurine (BAP; also called N6-benzyladenine) was obtained from Sigma (B3408, cell culture grade in powder form; CAS number 1214-39-7). Male and female CD-1 mice aged 6-7 weeks were acquired from Charles Rivers and acclimated on a chow diet for one week prior to experimentation. Mice were then weight-matched and placed on either a 60% high fat diet (HFD) or sucrose-matched control diet for 4 weeks (from Research Diets: 60% HFD D12492 and the sucrose-matched control diet […]). After 3 weeks on the diet, mice were acclimated for one week to the drinking apparatus, a 50 mL canonical tube with a drinking tube. After 4 weeks on the diet, the mice were again weight-matched and randomly assigned to either the control or BAP group. […] The average dosages achieved using this method are as follows: male HFD (200 mg/kg/day), male control (157 mg/kg/day), female HFD (189 mg/kg/day), and female control (129.9 mg/kg/day). The mice were exposed continuously to the solutions for a total of 33 days. One week prior to the end of the experiment (day 28), the mice were fasted for 4 hr and underwent intraperitoneal insulin tolerance testing (ITT). After 33 days, the mice were sacrificed, and their tissues were collected. RNA was isolated from the collected hypothalamic and used to quantify gene expression via qRT-PCR.

P2 receptors = conditions: rats, via P2 receptors, modifying intracellular calcium levels and cGMP; cited from earlier work
B16 melanoma cells = conditions: protein kinase A-dependent manner; cited from earlier work

## c1ccc(CNc2ncnc3nc[nH]c23)cc1 [BAP, N6-benzylaminopurine]
[1]
  Pomc expression: significantly induced
AMPK
  AMPK phosphorylation or activation vs vehicle: significant decrease
[2]; female CD-1, 60% HFD, 10 mM BAP in drinking water (189 mg/kg/day), after 9 days of exposure
  initial body weight loss: 9%
[2]; female CD-1, 60% HFD, 10 mM BAP in drinking water, 33 days
  body weight less than control group on same diet at end: 3 g
[2]; female CD-1, sucrose-matched control diet, 10 mM BAP in drinking water (129.9 mg/kg/day), after 3 days, quickly regained
  initial body weight loss: 5%
[2]; female CD-1, sucrose-matched control diet, 10 mM BAP in drinking water, 33 days
  body weight as percentage of starting weight vs vehicle control: not reduced
[2]; male CD-1, 60% HFD, 10 mM BAP in drinking water (200 mg/kg/day), peak after 13 days of exposure
  peak body weight loss: 18%
[2]; male CD-1, 60% HFD, 10 mM BAP in drinking water, 33 days
  body weight difference, control heavier than BAP group at end of experimental period: 11 grams
[2]; male CD-1, sucrose-matched control diet, 10 mM BAP in drinking water (157 mg/kg/day), peak after 12 days
  peak body weight loss: 9%
[2]; male CD-1, sucrose-matched control diet, 10 mM BAP in drinking water, 33 days
  body weight lighter than non-BAP control at end of experimental period: 4 g
P2 receptors
  strength of atrial muscle contractions: increase the strength of atrial muscle contractions
B16 melanoma cells
  melanogenesis: induce melanogenesis
